Assay results taken from DBAASP.
≈ marks a conversion by molar mass, not a printed value. Where “and” joins values, the source holds several entries; their conditions need not be identical. Equal values may be shown once.

Tests used:
Assay in all cases: ≥ marks a high value that may be exact or a test limit, other limits are often not marked, values filed in µg/mL are converted to µM
[1] = tested on: Salmonella typhimurium KCTC 1926
[2] = tested on: Staphylococcus epidermidis KCTC 1917
[3] = tested on: Staphylococcus aureus KCTC 1621
[4] = tested on: Escherichia coli KCTC 1682
[5] = tested on: Pseudomonas aeruginosa KCTC 1637
[6] = tested on: Bacillus subtilis KCTC 3068
Bacillus subtilis 168 = tested on: Bacillus subtilis 168
Pseudomonas aeruginosa = tested on: Pseudomonas aeruginosa
Staphylococcus aureus = tested on: Staphylococcus aureus
Escherichia coli B = tested on: Escherichia coli B
Acinetobacter baumannii = tested on: Acinetobacter baumannii
[7] = tested on: Escherichia coli ATCC 25922
[8] = tested on: Klebsiella pneumoniae ATCC 700603
[9] = tested on: Staphylococcus aureus ATCC 25923
[10] = tested on: Pseudomonas aeruginosa ATCC 9027
[11] = tested on: Klebsiella pneumoniae ATCC 13883
Klebsiella pneumoniae = tested on: Klebsiella pneumoniae
[12] = tested on: Salmonella enterica subsp. enterica serovar Typhimurium ATCC 14028

SMILES	MIC [1]	MIC [2]	MIC [3]	MIC [4]	MIC [5]	MIC [6]	also measured
CC[C@H](C)[C@H](NC(=O)[C@H](C)NC(=O)[C@H](CCCN=C(N)N)NC(=O)[C@H](Cc1ccccc1)NC(=O)[C@@H](NC(=O)[C@H](Cc1cnc[nH]1)NC(=O)[C@H](Cc1cnc[nH]1)NC(=O)[C@H](Cc1ccccc1)NC(=O)[C@@H](N)Cc1ccccc1)[C@@H](C)CC)C(=O)N[C@H](C(=O)N[C@@H](Cc1cnc[nH]1)C(=O)N[C@H](C(=O)NCC(=O)N[C@@H](CCCCN)C(=O)N[C@H](C(=O)N[C@H](C(=O)N[C@@H](Cc1cnc[nH]1)C(=O)N[C@@H](CCCN=C(N)N)C(=O)N[C@@H](CC(C)C)C(=O)N[C@H](C(=O)N[C@H](C(=O)NCC(=O)O)[C@@H](C)O)C(C)C)[C@@H](C)CC)[C@@H](C)O)C(C)C)C(C)C [FFHHIFRAIVHVGKTIHRLVTG]	1 µM (≈ 2.59 µg/mL)	1 µM (≈ 2.59 µg/mL)	2 µM (≈ 5.17 µg/mL)	2 µM (≈ 5.17 µg/mL)	4 µM (≈ 10.3 µg/mL)	2 µM (≈ 5.17 µg/mL)	
CC[C@H](C)[C@H](NC(=O)[C@H](CO)NC(=O)[C@H](CC(C)C)NC(=O)[C@H](Cc1ccccc1)NC(=O)CN)C(=O)N[C@@H](CC(C)C)C(=O)N[C@@H](CCCCN)C(=O)N[C@@H](CCCCN)C(=O)N[C@H](C(=O)N[C@@H](CC(C)C)C(=O)NCC(=O)N[C@@H](CCCCN)C(=O)N[C@H](C(=O)N[C@@H](CCSC)C(=O)N[C@@H](C)C(=O)N[C@@H](Cc1cnc[nH]1)C(=O)N[C@@H](CCSC)C(=O)N[C@@H](CCCCN)C(N)=O)C(C)C)C(C)C [GFLSILKKVLGKVMAHMK]							MIC (Bacillus subtilis 168): 1.3 µM (≈ 2.6 µg/mL); MIC (Pseudomonas aeruginosa): 14.4 µM (≈ 28.8 µg/mL); MIC (Staphylococcus aureus): 4.3 µM (≈ 8.6 µg/mL); MIC (Escherichia coli B): 1.8 µM (≈ 3.6 µg/mL)
CC[C@H](C)[C@H](NC(=O)[C@H](CO)NC(=O)[C@H](CC(C)C)NC(=O)[C@H](Cc1ccccc1)NC(=O)CN)C(=O)N[C@@H](CC(C)C)C(=O)N[C@@H](CCCCN)C(=O)N[C@@H](CCCCN)C(=O)N[C@H](C(=O)N[C@@H](CC(C)C)C(=O)N[C@@H](CCCCN)C(=O)N[C@@H](CCCCN)C(=O)N[C@H](C(=O)N[C@@H](CCSC)C(=O)N[C@@H](C)C(=O)N[C@@H](Cc1cnc[nH]1)C(=O)N[C@@H](CCSC)C(=O)N[C@@H](CCCCN)C(N)=O)C(C)C)C(C)C [GFLSILKKVLKKVMAHMK]							MIC (Bacillus subtilis 168): 1.4 µM (≈ 2.9 µg/mL); MIC (Pseudomonas aeruginosa): 25.3 µM (≈ 52.4 µg/mL); MIC (Staphylococcus aureus): 13.8 µM (≈ 28.6 µg/mL); MIC (Escherichia coli B): 1.8 µM (≈ 3.73 µg/mL)
CC[C@H](C)[C@H](N)C(=O)NCC(=O)N[C@@H](CCCCN)C(=O)N[C@@H](CCCCN)C(=O)N[C@@H](Cc1ccccc1)C(=O)N[C@@H](CCCCN)C(=O)N[C@@H](CCCN=C(N)N)C(=O)N[C@H](C(=O)N[C@H](C(=O)N[C@@H](CCC(N)=O)C(=O)N[C@@H](CCCN=C(N)N)C(=O)N[C@H](C(=O)N[C@@H](CCCCN)C(=O)N[C@@H](CC(=O)O)C(=O)N[C@@H](Cc1ccccc1)C(=O)N[C@@H](CC(C)C)C(=O)N[C@@H](CCCN=C(N)N)C(=O)N[C@@H](CC(N)=O)C(=O)N[C@@H](CC(C)C)C(=O)O)[C@@H](C)CC)C(C)C)[C@@H](C)CC [IGKKFKRIVQRIKDFLRNL]	2 µM (≈ 4.75 µg/mL)	2 µM (≈ 4.75 µg/mL)	4 µM (≈ 9.49 µg/mL)	8 µM (≈ 19 µg/mL)	8 µM (≈ 19 µg/mL)	2 µM (≈ 4.75 µg/mL)	
CC[C@H](C)[C@H](N)C(=O)NCC(=O)N[C@@H](CCCCN)C(=O)N[C@@H](CCCCN)C(=O)N[C@@H](Cc1ccccc1)C(=O)N[C@@H](CCCCN)C(=O)N[C@@H](CCCN=C(N)N)C(=O)N[C@H](C(=O)N[C@H](C(=O)N[C@@H](CCC(N)=O)C(=O)N[C@@H](CCCN=C(N)N)C(=O)N[C@H](C(=O)N[C@@H](CCCCN)C(=O)N[C@@H](CCCCN)C(=O)N[C@@H](Cc1ccccc1)C(=O)N[C@@H](CC(C)C)C(=O)N[C@@H](CCCN=C(N)N)C(=O)N[C@@H](CC(N)=O)C(=O)N[C@@H](CC(C)C)C(=O)O)[C@@H](C)CC)C(C)C)[C@@H](C)CC [IGKKFKRIVQRIKKFLRNL]	8 µM (≈ 19.1 µg/mL)	2 µM (≈ 4.77 µg/mL)	4 µM (≈ 9.54 µg/mL)	8 µM (≈ 19.1 µg/mL)	8 µM (≈ 19.1 µg/mL)	2 µM (≈ 4.77 µg/mL)	
CC[C@H](C)[C@H](N)C(=O)NCC(=O)N[C@@H](CCCCN)C(=O)N[C@@H](CC(C)C)C(=O)N[C@@H](Cc1ccccc1)C(=O)N[C@@H](CCCCN)C(=O)N[C@@H](CCCN=C(N)N)C(=O)N[C@H](C(=O)N[C@H](C(=O)N[C@@H](CCC(N)=O)C(=O)N[C@@H](CCCN=C(N)N)C(=O)N[C@H](C(=O)N[C@@H](CCCCN)C(=O)N[C@@H](CCCCN)C(=O)N[C@@H](Cc1ccccc1)C(=O)N[C@@H](CC(C)C)C(=O)N[C@@H](CCCN=C(N)N)C(=O)N[C@@H](CC(N)=O)C(=O)N[C@@H](CC(C)C)C(=O)O)[C@@H](C)CC)C(C)C)[C@@H](C)CC [IGKLFKRIVQRIKKFLRNL]	4 µM (≈ 9.48 µg/mL)	4 µM (≈ 9.48 µg/mL)	8 µM (≈ 19 µg/mL)	8 µM (≈ 19 µg/mL)	8 µM (≈ 19 µg/mL)	4 µM (≈ 9.48 µg/mL)	
CC[C@H](C)[C@H](N)C(=O)N[C@@H](CC(C)C)C(=O)N1CCC[C@H]1C(=O)N[C@@H](Cc1c[nH]c2ccccc12)C(=O)N[C@@H](CCCCN)C(=O)N[C@@H](Cc1c[nH]c2ccccc12)C(=O)N[C@@H](CCCCN)C(=O)N[C@@H](Cc1c[nH]c2ccccc12)C(=O)N[C@@H](Cc1c[nH]c2ccccc12)C(=O)N[C@@H](CCCCN)C(=O)N[C@@H](Cc1c[nH]c2ccccc12)C(=O)N[C@@H](CCCN=C(N)N)C(=O)N[C@@H](CCCN=C(N)N)C(N)=O [ILPWKWKWWKWRR]	5.08 µM (≈ 10 µg/mL)	5.08 µM (≈ 10 µg/mL)	2.54 µM (≈ 5 µg/mL)	5.08 µM (≈ 10 µg/mL)	5.08 µM (≈ 10 µg/mL)	2.54 µM (≈ 5 µg/mL)	
CC[C@H](C)[C@H](NC(=O)[C@H](CCCCN)NC(=O)[C@H](CC(C)C)NC(=O)[C@H](CC(C)C)NC(=O)[C@@H](N)CCCCN)C(=O)N[C@@H](Cc1c[nH]c2ccccc12)C(=O)N[C@@H](Cc1c[nH]c2ccccc12)C(=O)N[C@H](C(=O)N[C@@H](CCCCN)C(=O)N[C@H](C(=O)N[C@@H](CC(C)C)C(=O)N[C@@H](CCCCN)C(N)=O)C(C)C)[C@@H](C)CC [KLLKIWWIKVLK]	2 µM (≈ 3.13 µg/mL)	3.99 µM (≈ 6.25 µg/mL)	7.97 µM (≈ 12.5 µg/mL)	7.97 µM (≈ 12.5 µg/mL)	3.99 µM (≈ 6.25 µg/mL)	7.97 µM (≈ 12.5 µg/mL)	
CSCC[C@H](NC(=O)[C@H](Cc1cnc[nH]1)NC(=O)[C@H](C)NC(=O)[C@H](CCSC)NC(=O)[C@@H](NC(=O)[C@@H](N)CCCCN)C(C)C)C(=O)N[C@@H](CCCCN)C(N)=O [KVMAHMK]							MIC (Bacillus subtilis 168): ≥ 100 µM; MIC (Escherichia coli B): ≥ 100 µM
CC[C@H](C)[C@H](NC(=O)[C@H](CC(C)C)NC(=O)[C@H](CCCCN)NC(=O)[C@@H](NC(=O)[C@H](CC(C)C)NC(=O)[C@H](CCCN=C(N)N)NC(=O)[C@H](CCCN=C(N)N)NC(=O)[C@@H](NC(=O)[C@H](C)NC(=O)[C@H](CCCCN)NC(=O)[C@H](C)NC(=O)[C@H](CC(C)C)NC(=O)[C@@H](NC(=O)[C@@H](N)CCCN=C(N)N)[C@@H](C)CC)[C@@H](C)O)C(C)C)C(=O)N[C@H](C(=O)N[C@@H](CO)C(=O)NCC(=O)O)C(C)C [RILAKATRRLVKLIVSG]							MIC (Acinetobacter baumannii): 25 µM (≈ 47.4 µg/mL); MIC [7]: > 25 µM; MIC [8]: > 25 µM; MIC [9]: > 25 µM; MIC [10]: > 25 µM
CC(C)C[C@H](NC(=O)[C@H](C)NC(=O)[C@H](CCCN=C(N)N)NC(=O)[C@H](C)NC(=O)[C@H](Cc1c[nH]c2ccccc12)NC(=O)CNC(=O)[C@H](CCCN=C(N)N)NC(=O)[C@@H](N)CCCN=C(N)N)C(=O)N[C@@H](C)C(=O)N[C@@H](Cc1ccccc1)C(=O)N[C@@H](C)C(=O)N[C@@H](Cc1ccccc1)C(=O)NCC(=O)N[C@@H](CCCN=C(N)N)C(N)=O [RRGWARALAFAFGR]							MIC [11]: 14.8 µM and 30 µM; MIC (Klebsiella pneumoniae): 1.9 µM (≈ 3.1 µg/mL); MIC (Acinetobacter baumannii): 1.8 µM (≈ 2.94 µg/mL); MIC [7]: 6.6 µM and 15.5 µM; MIC [9]: > 30 µM
CC(C)C[C@H](NC(=O)[C@H](CCCN=C(N)N)NC(=O)[C@H](CCCN=C(N)N)NC(=O)[C@H](C)NC(=O)[C@H](Cc1c[nH]c2ccccc12)NC(=O)CNC(=O)[C@H](CCCN=C(N)N)NC(=O)[C@@H](N)CCCN=C(N)N)C(=O)N[C@@H](Cc1ccccc1)C(=O)N[C@@H](C)C(=O)N[C@@H](C)C(=O)N[C@@H](Cc1ccccc1)C(=O)NCC(=O)N[C@@H](CCCN=C(N)N)C(=O)N[C@@H](CCCN=C(N)N)C(N)=O [RRGWARRLFAAFGRR]							MIC [11]: 30 µM (≈ 56.3 µg/mL); MIC (Klebsiella pneumoniae): 1.8 µM (≈ 3.38 µg/mL); MIC (Acinetobacter baumannii): 4.8 µM (≈ 9 µg/mL); MIC [7]: 11.5 µM and 30 µM; MIC [9]: > 30 µM; MIC [12]: 10.6 µM and 30 µM
CC(C)C[C@H](NC(=O)[C@H](Cc1ccccc1)NC(=O)[C@H](CCCCN)NC(=O)[C@H](Cc1c[nH]c2ccccc12)NC(=O)[C@H](Cc1c[nH]c2ccccc12)NC(=O)[C@H](Cc1c[nH]c2ccccc12)NC(=O)[C@H](CCCCN)NC(=O)[C@H](Cc1ccccc1)NC(=O)[C@H](CCCN=C(N)N)NC(=O)[C@H](CCCN=C(N)N)NC(=O)[C@@H](N)C(C)C)C(=O)N[C@@H](CCCN=C(N)N)C(=O)N[C@@H](CCCN=C(N)N)C(N)=O [VRRFKWWWKFLRR]	2 µM (≈ 3.93 µg/mL)	0.5 µM (≈ 0.982 µg/mL)	1 µM (≈ 1.96 µg/mL)	2 µM (≈ 3.93 µg/mL)	4 µM (≈ 7.85 µg/mL)	0.5 µM (≈ 0.982 µg/mL)	
